# Target: T1, SYK (Homo sapiens, UniProt P43405)
# T1 construct: 2.5 nM SYK, 400 nM Biotin-Aha-Aha-KEDPDYEWPSAKK
# Assay: SYK flash plate assay (enzyme assay)
# Assay type: biochemical
# How it was run: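 Radiometric Flashplate format: biotinylated peptide substrate (400 nM) and 33P-labelled ATP (10 μM) react with 2.5 nM enzyme for 1 hour at 30 °C in Hepes buffer, pH 7.5. After EDTA quench and washing, counts are taken; staurosporine defines non-specific signal, and IC50 values are derived.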
row,SMILES,IC50 [nM]
1,"CC1(C)C(=O)Nc2cc(Nc3nc4c(N5CCC(CNCC(F)(F)F)C5)nccn4n3)ccc21 (stereo not drawn) [E65, 3,3-dimethyl-6-(8-{3[(2,2,2-trifluoro-ethylamino)-methyl]-pyrrolidin-1-yl}-[1,2,4]triazolo[1,5-a]pyrazin-2-ylamino)-1,3-dihydro-indol-2-one]",100 to 300
2,"CC1(C)C(=O)Nc2cc(Nc3nc4c(C5CCCC5)nccn4n3)ccc21 [E66, 6-(8-cyclopentyl-[1,2,4]triazolo[1,5-a]pyrazin-2-ylamino)-3,3-dimethyl-1,3-dihydro-indol-2-one]",300 to 3000
3,"CC1=NC2(CCN(c3nccn4nc(Nc5ccc6c(c5)NC(=O)C6(C)C)nc34)CC2)C(=O)N1 [E71, 8-[2-(3,3-dimethyl-2-oxo-2,3-dihydro-1H-indol-6-ylamino)-[1,2,4]triazolo[1,5-a]pyrazin-8-yl]-2-methyl-1,3,8-triaza-spiro[4.5]dec-1-en-4-one]",100 to 300
4,"CN1[C@@H]2CC[C@H]1C[C@@H](Nc1nccn3nc(Nc4ccc5c(c4)NC(=O)C5(C)C)nc13)C2 [E78, 3,3-dimethyl-6-[8-((1R,3R,5S)-8-methyl-8-aza-bicyclo[3.2.1]oct-3-ylamino)-[1,2,4]triazolo[1,5-a]pyrazin-2-ylamino]-1,3-dihydro-indol-2-one]",100 to 300
5,"CC1(C)C(=O)Nc2cc(Nc3nc4c(NCC5CCCNC5)nccn4n3)ccc21 (stereo not drawn) [E79, 3,3-dimethyl-6-{8-[(piperidin-3-ylmethyl)-amino]-[1,2,4]triazolo[1,5-a]pyrazin-2-ylamino}-1,3-dihydro-indol-2-one]",300 to 3000
6,"CC1(C)C(=O)Nc2cc(Nc3nc4c(O[C@@H]5CN[C@@H](c6ccccc6C(F)(F)F)C5)nccn4n3)ccc21 [E82, 3,3-dimethyl-6-{8-[(3S,5R)-5-(2-trifluoroinethyl-phenyl)-pyrrolidin-3-yloxy]-[1,2,4]triazolo[1,5-a]pyrazin-2-ylamino}-1,3-dihydro-indol-2-one]",3000 to 50000
7,"COCC1CCCN1c1nccn2nc(Nc3ccc4c(c3)NC(=O)C4(C)C)nc12 (stereo not drawn) [E83, 6-[8-(2-methoxymethyl-pyrrolidin-1-yl)-[1,2,4]triazolo[1,5-a]pyrazin-2-ylamino]-3,3-dimethyl-1,3-dihydro-indol-2-one]",300 to 3000
8,"CC1(C)C(=O)Nc2cc(Nc3nc4c(N5C[C@H](OC=O)C[C@@H]5c5ccccc5C(F)(F)F)nccn4n3)ccc21 [E85, formic acid (3R,5R)-1-[2-(3,3-dimethyl-2-oxo-2,3-dihydro-1H-indol-6-ylamino)-[1,2,4]triazolo[1,5-a]pyrazin-8-yl]-5-(2-trifluoromethyl-phenyl)-pyrrolidin-3-yl ester]",3000 to 50000
9,"CC1(C)CCNc2cc(Nc3nc4c(N5CC[C@]6(CNC(=O)C6)C5)nccn4n3)ccc21 [E86, (S)-7-[2-(4,4-dimethyl-1,2,3,4-tetrahydro-quinolin-7-ylamino)-[1,2,4]triazolo[1,5-a]pyrazin-8-yl]-2,7-diaza-spiro[4.4]nonan-3-one]",100 to 300
10,"CC1(C)C(=O)Nc2cc(Nc3nc4c(N5CCC6(CCNC6)C5)nccn4n3)ccc21 (stereo not drawn) [E87, 6-[8-(2,7-diaza-spiro[4.4]non-2-yl)-[1,2,4]triazolo[1,5-a]pyrazin-2-ylamino]-3,3-dimethyl-1,3-dihydro-indol-2-one]",< 100
11,"CN(C)c1nccn2nc(Nc3ccc4c(c3)NC(=O)C4(C)C)nc12 [E88, 6-(8-dimethylamino-[1,2,4]triazolo[1,5-a]pyrazin-2-ylamino)-3,3-dimethyl-1,3-dihydro-indol-2-one]",< 100
12,"CN(C)CCN(C)c1nccn2nc(Nc3ccc4c(c3)NC(=O)C4(C)C)nc12 [E89, 6-{8-[(2-dimethylamino-ethyl)-methyl-amino]-[1,2,4]triazolo[1,5-a]pyrazin-2-ylamino}-3,3-dimethyl-1,3-dihydro-indol-2-one]",300 to 3000
13,"CN(CCc1ccccn1)c1nccn2nc(Nc3ccc4c(c3)NC(=O)C4(C)C)nc12 [E90, 3,3-dimethyl-6-{8-[methyl-(2-pyridin-2-yl-ethyl)-amino]-[1,2,4]triazolo[1,5-a]pyrazin-2-ylamino}-1,3-dihydro-indol-2-one]",300 to 3000
14,"CC1(C)C(=O)Nc2cc(Nc3nc4c(NCC5CCNCC5)nccn4n3)ccc21 [E91, 3,3-dimethyl-6-{8-[(piperidin-4-ylmethyl)-amino]-[1,2,4]triazolo[1,5-a]pyrazin-2-ylamino}-1,3-dihydro-indol-2-one]",< 100
15,"CCN(CC)c1nccn2nc(Nc3ccc4c(c3)NC(=O)C4(C)C)nc12 [E92, 6-(8-diethylamino-[1,2,4]triazolo[1,5-a]pyrazin-2-ylamino)-3,3-dimethyl-1,3-dihydro-indol-2-one]",< 100
16,"CC1(C)CC(=O)Nc2cc(Nc3nc4c(N5CCCC5c5ccccc5)nccn4n3)ccc21 (stereo not drawn) [E93, 4,4-dimethyl-7-[8-(2-phenyl-pyrrolidin-1-yl)-[1,2,4]triazolo[1,5-a]pyrazin-2-ylamino]-3,4-dihydro-1H-quinolin-2-one]",300 to 3000
17,"CC1(C)CC(=O)Nc2cc(Nc3nc4c(N5CC(O)CC5c5ccccc5)nccn4n3)ccc21 (stereo not drawn) [E96, 7-[8-(4-hydroxy-2-phenyl-pyrrolidin-1-yl)-[1,2,4]triazolo[1,5-a]pyrazin-2-ylamino]-4,4-dimethyl-3,4-dihydro-1H-quinolin-2-one]",300 to 3000
18,"CC1(C)CNc2cc(Nc3nc4c(N5CCCCCC5)nccn4n3)ccc21 [E99, (8-azepan-1-yl-[1,2,4]triazolo[1,5-a]pyrazin-2-yl)-(3,3-dimethyl-2,3-dihydro-1H-indol-6-yl)-amine]",< 100
19,"CC1(C)CN(c2nccn3nc(Nc4ccc5c(c4)NC(=O)C5(C)C)nc23)c2cc(Cl)ccc21 [E100, 6-[8-(6-chloro-3,3-dimethyl-2,3-dihydro-indol-1-yl)-[1,2,4]triazolo[1,5-a]pyrazin-2-ylamino]-3,3-dimethyl-1,3-dihydro-indol-2-one]",300 to 3000
20,"CC1(C)CCNc2cc(Nc3nc4c(N5CC[C@@]6(CNC(=O)C6)C5)nccn4n3)ccc21 [E101, (R)-7-[2-(4,4-dimethyl-1,2,3,4-tetrahydro-quinolin-7-ylamino)-[1,2,4]triazolo[1,5-a]pyrazin-8-yl]-2,7-diaza-spiro[4.4]nonan-3-one]",< 100
21,"CC1(C)C(=O)Nc2cc(Nc3nc4c(N5CCc6ccc(N)cc65)nccn4n3)ccc21 [E102, 6-[8-(6-amino-2,3-dihydro-indol-1-yl)-[1,2,4]triazolo[1,5-a]pyrazin-2-ylamino]-3,3-dimethyl-1,3-dihydro-indol-2-one]",< 100
22,"CC(=O)NCCNc1nccn2nc(Nc3ccc4c(c3)NC(=O)C4(C)C)nc12 [E103, N-{2-[2-(3,3-dimethyl-2-oxo-2,3-dihydro-1H-indol-6-ylamino)-[1,2,4]triazolo[1,5-a]pyrazin-8-ylamino]-ethyl}-acetamide]",300 to 3000

# Results, then the compound that gave them:
row,IC50 [nM],SMILES
1,< 100,"CC1(C)C(=O)Nc2cc(Nc3nc4c(N5CC6CCC(C5)O6)nccn4n3)ccc21 [E67, 3,3-dimethyl-6-[8-(8-oxa-3-aza-bicyclo[3.2.1]oct-3-yl)-[1,2,4]triazolo[1,5-a]pyrazin-2-ylamino]-1,3-dihydro-indol-2-one]"
2,< 100,"CC1(C)C(=O)Nc2cc(Nc3nc4c(N5CCCNCC5)nccn4n3)ccc21 [E68, 6-(8-[1,4]diazepan-1-yl-[1,2,4]triazolo[1,5-a]pyrazin-2-ylamino)-3,3-dimethyl-1,3-dihydro-indol-2-one]"
3,< 100,"CC1(C)C(=O)Nc2cc(Nc3nc4c(N5CCCCC5)nccn4n3)ccc21 [E69, 3,3-dimethyl-6-(8-piperidin-1-yl-[1,2,4]triazolo[1,5-a]pyrazin-2-ylamino)-1,3-dihydro-indol-2-one]"
4,< 100,"CC1(C)C(=O)Nc2cc(Nc3nc4c(N5CCC(O)(C(F)(F)F)CC5)nccn4n3)ccc21 [E70, 6-[8-(4-hydroxy-4-trifluoromethyl-piperidin-1-yl)-[1,2,4]triazolo[1,5-a]pyrazin-2-ylamino]-3,3-dimethyl-1,3-dihydro-indol-2-one]"
5,< 100,"CC1(C)C(=O)Nc2cc(Nc3nc4c(N5CCCC(=O)CC5)nccn4n3)ccc21 [E72, 3,3-dimethyl-6-[8-(4-oxo-azepan-1-yl)-[1,2,4]triazolo[1,5-a]pyrazin-2-ylamino]-1,3-dihydro-indol-2-one]"
6,< 100,"CC1(C)C(=O)Nc2cc(Nc3nc4c(N5CCc6ccccc65)nccn4n3)ccc21 [E73, 6-[8-(2,3-dihydro-indol-1-yl)-[1,2,4]triazolo[1,5-a]pyrazin-2-ylamino]-3,3-dimethyl-1,3-dihydro-indol-2-one]"
7,< 100,"CC1(C)C(=O)Nc2cc(Nc3nc4c(N5CCNC(=O)CC5)nccn4n3)ccc21 [E74, 3,3-dimethyl-6-[8-(5-oxo-[1,4]diazepan-1-yl)-[1,2,4]triazolo[1,5-a]pyrazin-2-ylamino]-1,3-dihydro-indol-2-one]"
8,< 100,"CC1(C(N)=O)CCN(c2nccn3nc(Nc4ccc5c(c4)NC(=O)C5(C)C)nc23)C1 (stereo not drawn) [E75, 1-[2-(3,3-dimethyl-2-oxo-2,3-dihydro-1H-indol-6-ylamino)-[1,2,4]triazolo[1,5-a]pyrazin-8-yl]-3-methyl-pyrrolidine-3-carboxylic acid amide]"
9,< 100,"CC1(C)C(=O)Nc2cc(Nc3nc4c(-c5c[nH]c6ccccc56)nccn4n3)ccc21 [E76, 6-[8-(1H-indol-3-yl)-[1,2,4]triazolo[1,5-a]pyrazin-2-ylamino]-3,3-dimethyl-1,3-dihydro-indol-2-one]"
10,< 100,"CC1(C)CCNc2cc(Nc3nc4c(N5CCC6(CC5)CNC(=O)C6)nccn4n3)ccc21 [E77, 8-[2-(4,4-dimethyl-1,2,3,4-tetrahydro-quinolin-7-ylamino)-[1,2,4]triazolo[1,5-a]pyrazin-8-yl]-2,8-diaza-spiro[4.5]decan-3-one]"
11,< 100,"COc1ccc2c(c1)CCN2c1nccn2nc(Nc3ccc4c(c3)NC(=O)C4(C)C)nc12 [E81, 6-[8-(5-methoxy-2,3-dihydro-indol-1-yl)-[1,2,4]triazolo[1,5-a]pyrazin-2-ylamino]-3,3-dimethyl-1,3-dihydro-indol-2-one]"

# Source: patent US9120804B2, “8-substituted 2-amino-[1,2,4] triazolo [1, 5-A] pyrazines as Syk tryrosine kinase inhibitors and GCN2 serin kinase inhibitors” (Merck Patent GmbH, priority 2012, dated 2015)
